# Legend:
# [1] = target: T1, recombinantly expressed His-tagged protein corresponding to amino acids 575-869 of human Tyk2 (Homo sapiens, UniProt P29597); experiment: Probe displacement assay (scintillation proximity, radiolabeled probe); assay type: binding
# T1 construct: made in house
# Procedure: The probe displacement assay is conducted as follows: In a […], test compounds along with recombinantly expressed His-tagged protein corresponding to amino acids 575-869 of human Tyk2 (sequence shown below) at 2.5 nM, 40 nM ((R)—N-(1-(3-(8-methyl-5-(methylamino)-8H-imidazo[4,5-d]thiazolo[5,4-b]pyridin-2-yl)phenyl)ethyl)-2-([^3H]methylsulfonyl)benzamide) (preparation described below) and 80 μg/mL Copper His-Tag scintillation proximity assay beads (Perkin Elmer, Catalog #RPNQ0095) in 50 mM HEPES, pH 7.5, containing 100 μg/mL bovine serum albumin and 5% DMSO were incubated for 30 minutes at room temperature. […] The IC50 value is defined as the concentration of test compound required to inhibit radiolabeled probe binding by 50%.
# Protein Sequence of recombinant Hig-tagged Tyk2 (575-869):
# The preparation of radiolabeled probe, (R)—N-(1-(3-(8-methyl-5-(methylamino)-8H-imidazo[4,5-d]thiazolo[5,4-b]pyridin-2-yl)phenyl)ethyl)-2-([^3H]methylsulfonyl)benzamide, was performed as described below: […]
# [2] = tested on: IL-23-stimulated Kit225 T cells with STAT-dependent luciferase reporter; experiment: Kit225 T cell assay, IL-23 stimulated STAT-dependent luciferase reporter; assay type: cell-based, human; conditions: Homo sapiens, KIT225, read-out: IL-23 Kit225 Reporter, LE (IC50, uM)
# Procedure: (§1) Kit225 T cells with a stably-integrated STAT-dependent luciferase reporter were plated in RPMI (GIBCO) containing 10% heat-inactivated FBS (GIBCO) and 100 U/mL PenStrep (GIBCO). The cells were then stimulated with either 20 ng/mL human recombinant IL-23 or 200 U/mL human recombinant IFNα (PBL InterferonSource) for 5-6 hours. Luciferase expression was measured using the STEADY-GLO® Luciferase Assay System (PROMEGA®) according to the manufacturer's instructions.
# [3] = tested on: IFNα-stimulated Kit225 T cells with STAT-dependent luciferase reporter; experiment: Kit225 T cell assay, IFNα stimulated STAT-dependent luciferase reporter; assay type: cell-based, human; conditions: Homo sapiens, KIT225, read-out: IFNa Kit225 Reporter, LE (IC50, uM)
# Procedure: as §1
# T1 sequence (P29597 with tags, fused parts or gaps): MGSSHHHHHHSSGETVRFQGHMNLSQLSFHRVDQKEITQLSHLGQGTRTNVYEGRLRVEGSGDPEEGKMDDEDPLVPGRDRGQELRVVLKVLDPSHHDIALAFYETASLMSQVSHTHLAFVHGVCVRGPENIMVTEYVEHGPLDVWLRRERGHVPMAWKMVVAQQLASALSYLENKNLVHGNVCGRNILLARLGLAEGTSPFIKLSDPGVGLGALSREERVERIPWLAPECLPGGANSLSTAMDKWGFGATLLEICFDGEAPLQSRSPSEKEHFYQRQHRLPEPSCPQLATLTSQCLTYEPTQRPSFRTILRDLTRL
Compound,EC50 [1],IC50 [2],IC50 [3]
[2H]C([2H])([2H])NC(=O)c1sccc1Nc1cc(NC)c2ncc(C(=O)NC3CCC3)n2n1 [Example 50],30 nM,0.45 µM,1 µM
CNc1cc(Nc2cn(C)nc2C(=O)Nc2ccc(N(C)C)cc2)nn2c(C(=O)NC3CC3)cnc12 [Example 27],6.8 nM,0.02 µM,0.16 µM
CNc1cc(Nc2cn(C)nc2C(=O)Nc2ccccn2)nn2c(C(=O)NC3CC3)cnc12 [Example 4],7.6 nM,0.35 µM,0.24 µM
"CNC(=O)c1cc(Nc2cc(NC)c3ncc(C(=O)NC4CC4)n3n2)n(C)n1 [Example 39, N-cyclopropyl-6-((1-methyl-3-(methylcarbamoyl)-1H-pyrazol-5-yl)amino)-8-(methylamino)imidazo[1,2-b]pyridazine-3-carboxamide]",1270 nM,12.5 µM,12.5 µM
CNC(=O)c1nn(C)cc1Nc1cc(NC)c2ncc(C(=O)N[C@@H]3C[C@@H]3F)n2n1 [Example 14],10 nM,0.28 µM,0.25 µM
CNc1cc(Nc2csnc2C(=O)Nc2ccc(OC)cc2)nn2c(C(=O)NC3CC3)cnc12 [Example 63],6.04 nM,–,0.29 µM
CCn1cc(Nc2cc(NC)c3ncc(C(=O)NC4CC4)n3n2)c(C(=O)Nc2ccccc2)n1 [Example 31],9.39 nM,0.72 µM,0.3 µM
"CNC(=O)c1sccc1Nc1cc(NC)c2ncc(C(=O)NC3CC3)n2n1 [Example 43, N-cyclopropyl-8-(methylamino)-6-((2-(methylcarbamoyl)thiophen-3-yl)amino)imidazo[1,2-b]pyridazine-3-carboxamide]",490 nM,16.1 µM,12.5 µM
CCCNC(=O)c1ncsc1Nc1cc(NC)c2ncc(C(=O)NC3CC3)n2n1 [Example 80],20 nM,0.14 µM,0.13 µM
CNc1cc(Nc2nn(C)cc2C(=O)Nc2ccccc2)nn2c(C(=O)NC3CC3)cnc12 [Example 36],130 nM,3.33 µM,11.9 µM
CNc1cc(Nc2scnc2C(=O)Nc2ccccc2)nn2c(C(=O)NC3CC3)cnc12 [Example 82],3.95 nM,0.19 µM,0.35 µM
"CNC(=O)c1cc(Nc2cc(NC)c3ncc(C(=O)NC4CC4)n3n2)nn1C [Example 41, N-cyclopropyl-6-((1-methyl-5-(methylcarbamoyl)-1H-pyrazol-3-yl)amino)-8-(methylamino)imidazo[1,2-b]pyridazine-3-carboxamide]",30 nM,12.5 µM,12.5 µM
CNc1cc(Nc2ccoc2C(=O)Nc2ccc(F)cc2)nn2c(C(=O)NC3CC3)cnc12 [Example 56],2.08 nM,0.03 µM,0.02 µM
CNc1cc(Nc2cn(C)nc2C(=O)Nc2ccccc2)nn2c(C(=O)NC3CC3)cnc12 [Example 2],3 nM,0.94 µM,0.68 µM
CNc1cc(Nc2cn(C)nc2C(=O)Nc2ccc(F)cc2)nn2c(C(=O)NC3CC3)cnc12 [Example 23],20 nM,0.43 µM,0.81 µM
CNc1cc(Nc2cn(C)nc2C(=O)NC2CCC2)nn2c(C(=O)NC3CC3)cnc12 [Example 19],100 nM,0.59 µM,12.5 µM
CNc1cc(Nc2cn(C)nc2C(=O)Nc2ccccc2)nn2c(C(=O)N[C@@H]3C[C@@H]3F)cnc12 [Example 15],9.37 nM,0.2 µM,0.11 µM
CNc1cc(Nc2cn(C)nc2C(=O)Nc2ccncc2)nn2c(C(=O)NC3CC3)cnc12 [Example 6],3.84 nM,0.07 µM,0.19 µM
[2H]C([2H])([2H])NC(=O)c1sccc1Nc1cc(NC)c2ncc(C(=O)NCCOC)n2n1 [Example 48],20 nM,0.15 µM,0.08 µM
[2H]C([2H])([2H])NC(=O)c1nn(C)cc1Nc1cc(NC)c2ncc(C(=O)NC3CC3)n2n1 [Example 10],30 nM,0.96 µM,0.4 µM

# Source: patent US10836770B2, “Imidazopyridazine compounds useful as modulators of IL-12, IL-23 and/or INF alpha responses” (priority 2016, dated 2020)
